These compounds were tested on HCV replicon RNA (GenBank Accession No. AJ242654) (assay: HCV Replicon Assay (replicon RNA reduction and/or Fluc reporter signal)). Conditions: Hepatitis C virus, 72 h, replicon-containing cells cultured with test compound for up to 3 days.
Format: cell-based, Hepatitis C virus
From the text: The lack of reliable and readily accessible cell-culture and small animal models permissive for HCV replication has limited the development of new anti-HCV agents. Self-replicating subgenomic HCV systems, termed HCV replicons, have been described and have been widely used to assess the efficacy of anti-HCV inhibitors (see Blight K J, et al., 2000, Efficient initiation of HCV RNA replication in cell culture. Science 290:1972-1974; Blight K J, et al., 2002, Highly permissive cell lines for subgenomic and genomic hepatitis C virus RNA replication. J Virol 76:13001-13014; Ikeda M, et al., 2002. Selectable subgenomic and genome-length dicistronic RNAs derived from an infectious molecular clone of the HCV-N strain of hepatitis C virus replicate efficiently in cultured Huh7 cells. J Virol 76:2997-3006; Lohmann V, et al., 1999, Replication of subgenomic hepatitis C virus RNAs in a hepatoma cell line. Science 285:110-113; Pietschmann T, et al., 2002, Persistent and transient replication of full-length hepatitis C virus genomes in cell culture. J Virol 76:4008-4021; and, Pietschmann T, et al., 2001, Characterization of cell lines carrying self-replicating hepatitis C virus RNAs. J Virol 75:1252-1264).
As described in U.S. Pat. No. 6,630,343, HCV inhibitors are analyzed in the bicistronic replicon by quantitating replicon RNA (GenBank Accession No. AJ242654) reduction and/or the Fluc reporter signal. Replicon-containing cells may be cultured with a test compound of the present invention for up to 3 days. Interferon (IFN) is used as a positive control. In general, the replicon IC50 values shown in Table 1 represent IC50 values determined by replicon RNA reduction.

Compound | IC50 [nM]
Cc1ccc2c(C#N)c(-c3ccc(S(=O)(=O)NC(C)(C)C(F)(F)F)cc3)n(C3CCC3)c2n1 [Cpd 139, 4-(3-cyano-1-cyclobutyl-6-methyl-1H-pyrrolo[2,3-b]pyridin-2-yl)-N-(1,1,1-trifluoro-2-methylpropan-2-yl)benzenesulfonamide] | 500 to 2000
CCc1cnc2c(c1)c(C(N)=O)c(-c1ccc(S(=O)(=O)NC3(C(F)(F)F)CC3)cn1)n2C1CCC1 [Cpd 380, 1-cyclobutyl-5-ethyl-2-(5-{[1-(trifluoromethyl)cyclopropyl]sulfamoyl}pyridin-2-yl)-1H-pyrrolo[2,3-b]pyridine-3-carboxamide] | < 500
C[C@H](NS(=O)(=O)c1ccc(-c2c(C#N)c3cc(N(C)Cc4ccccc4)cnc3n2C2CCC2)nc1)C(F)(F)F [Cpd 350, 6-{5-[benzyl(methyl)amino]-3-cyano-1-cyclobutyl-1H-pyrrolo[2,3-b]pyridin-2-yl}-N-[(2S)-1,1,1-trifluoropropan-2-yl]pyridine-3-sulfonamide] | < 500
COc1ccc2c(C#N)c(-c3ccc(S(=O)(=O)NC(CF)CF)cc3)n(C3CCC3)c2n1 [Cpd 43, 4-(3-cyano-1-cyclobutyl-6-methoxy-1H-pyrrolo[2,3-b]pyridin-2-yl)-N-(1,3-difluoropropan-2-yl)benzenesulfonamide] | < 500
Cc1cnc2c(c1)c(C(N)=O)c(-c1ccc(S(=O)(=O)N[C@@H](C)C(F)(F)F)cc1)n2C1CCC1 [Cpd 343, 1-cyclobutyl-5-methyl-2-(4-{[(2S)-1,1,1-trifluoropropan-2-yl]sulfamoyl}phenyl)-1H-pyrrolo[2,3-b]pyridine-3-carboxamide] | < 500
N#Cc1c(-c2ccc(S(=O)(=O)NC(CF)CF)cn2)n(C2CCC2)c2ncc(C3CC3)cc12 [Cpd 131, 6-(3-cyano-1-cyclobutyl-5-cyclopropyl-1H-pyrrolo[2,3-b]pyridin-2-yl)-N-(1,3-difluoropropan-2-yl)pyridine-3-sulfonamide] | < 500
CC(C)(C)NS(=O)(=O)c1ccc(-c2c(C(N)=O)c3cc(C4CC4)cnc3n2C2CCC2)cc1 [Cpd 375, 2-[4-(tert-butylsulfamoyl)phenyl]-1-cyclobutyl-5-cyclopropyl-1H-pyrrolo[2,3-b]pyridine-3-carboxamide] | < 500
C[C@H](NS(=O)(=O)c1cnc(-c2c(C(N)=O)c3cccnc3n2C2CCC2)nc1)C(F)(F)F [Cpd 367, 1-cyclobutyl-2-(5-{[(2S)-1,1,1-trifluoropropan-2-yl]sulfamoyl}pyrimidin-2-yl)-1H-pyrrolo[2,3-b]pyridine-3-carboxamide] | 2000 to 5000
COc1cnc2c(c1)c(C#N)c(-c1ccc(S(=O)(=O)NC3(C(F)(F)F)CC3)cn1)n2C1CCC1 [Cpd 312, 6-(3-cyano-1-cyclobutyl-5-methoxy-1H-pyrrolo[2,3-b]pyridin-2-yl)-N-[1-(trifluoromethyl)cyclopropyl]pyridine-3-sulfonamide] | < 500
Cc1ccc2c(C#N)c(-c3ccc(S(=O)(=O)N[C@@H](C)C(F)(F)F)cn3)n(C3CCC3)c2n1 [Cpd 92, 6-(3-cyano-1-cyclobutyl-6-methyl-1H-pyrrolo[2,3-b]pyridin-2-yl)-N-[(2S)-1,1,1-trifluoropropan-2-yl]pyridine-3-sulfonamide] | < 500
CCc1cnc2c(c1)c(C#N)c(-c1ncc(S(=O)(=O)NC(CF)CF)cn1)n2C1CCC1 [Cpd 192, 2-(3-cyano-1-cyclobutyl-5-ethyl-1H-pyrrolo[2,3-b]pyridin-2-yl)-N-(1,3-difluoropropan-2-yl)pyrimidine-5-sulfonamide] | < 500
N#Cc1c(-c2ccc(S(=O)(=O)NC3(C(F)(F)F)CC3)cn2)n(C2CCC2)c2ncc(C(F)F)cc12 [Cpd 457, 6-[3-cyano-1-cyclobutyl-5-(difluoromethyl)-1H-pyrrolo[2,3-b]pyridin-2-yl]-N-[1-(trifluoromethyl)cyclopropyl]pyridine-3-sulfonamide] | < 500
CC1(NS(=O)(=O)c2ccc(-c3c(C#N)c4cc(Cl)cnc4n3C3CCC3)nc2)CC1 [Cpd 280, 6-(5-chloro-3-cyano-1-cyclobutyl-1H-pyrrolo[2,3-b]pyridin-2-yl)-N-(1-methylcyclopropyl)pyridine-3-sulfonamide] | < 500
[C-]#[N+]c1cnc(-n2c(-c3ccc(S(=O)(=O)N[C@@H](C)C(F)(F)F)cn3)c(C#N)c3cc(C)cnc32)s1 [Cpd 451, 6-[3-cyano-1-(5-isocyano-1,3-thiazol-2-yl)-5-methyl-1H-pyrrolo[2,3-b]pyridin-2-yl]-N-[(2S)-1,1,1-trifluoropropan-2-yl]pyridine-3-sulfonamide] | < 500
Cc1ccc2c(n1)c(C#N)c(-c1ccc(S(=O)(=O)N[C@@H](C)C(F)(F)F)cn1)n2C1CCCC1 [Cpd 222, 6-(3-cyano-1-cyclopentyl-5-methyl-1H-pyrrolo[3,2-b]pyridin-2-yl)-N-[(2S)-1,1,1-trifluoropropan-2-yl]pyridine-3-sulfonamide] | < 500
CC1(NS(=O)(=O)c2ccc(-c3c(C#N)c4cc(C5CC5)cnc4n3C3CCCC3)nc2)CC1 [Cpd 253, 6-(3-cyano-1-cyclopentyl-5-cyclopropyl-1H-pyrrolo[2,3-b]pyridin-2-yl)-N-(1-methylcyclopropyl)pyridine-3-sulfonamide] | 500 to 2000
C[C@H](NS(=O)(=O)c1cnc(-c2c(C#N)c3ccc(C4CC4)nc3n2C2CCC2)nc1)C(F)(F)F [Cpd 153, 2-(3-cyano-1-cyclobutyl-6-cyclopropyl-1H-pyrrolo[2,3-b]pyridin-2-yl)-N-[(2S)-1,1,1-trifluoropropan-2-yl]pyrimidine-5-sulfonamide] | < 500
CC(C)(NS(=O)(=O)c1ccc(-c2c(C#N)c3cc(C(F)(F)F)cnc3n2C2CC2)cc1)C(F)(F)F [Cpd 361, 4-[3-cyano-1-cyclopropyl-5-(trifluoromethyl)-1H-pyrrolo[2,3-b]pyridin-2-yl]-N-(1,1,1-trifluoro-2-methylpropan-2-yl)benzenesulfonamide] | 2000 to 5000
CC1(NS(=O)(=O)c2ccc(-c3c(C(N)=O)c4cc(Cl)cnc4n3C3CCC3)nc2)CC1 [Cpd 366, 5-chloro-1-cyclobutyl-2-{5-[(1-methylcyclopropyl)sulfamoyl]pyridin-2-yl}-1H-pyrrolo[2,3-b]pyridine-3-carboxamide] | < 500
CCc1cnc2c(c1)c(C#N)c(-c1ccc(S(=O)(=O)N[C@H](C)C(F)(F)F)cn1)n2C1CCCC1 [Cpd 251, 6-(3-cyano-1-cyclopentyl-5-ethyl-1H-pyrrolo[2,3-b]pyridin-2-yl)-N-[(2R)-1,1,1-trifluoropropan-2-yl]pyridine-3-sulfonamide] | < 500
C[C@H](NS(=O)(=O)c1ccc(-c2c(C#N)c3cc(OC(F)F)cnc3n2C2CCC2)nc1)C1CC1 [Cpd 200, 6-[3-cyano-1-cyclobutyl-5-(difluoromethoxy)-1H-pyrrolo[2,3-b]pyridin-2-yl]-N-[(1S)-1-cyclopropylethyl]pyridine-3-sulfonamide] | 500 to 2000
CCc1cnc2c(c1)c(C#N)c(-c1ccc(S(=O)(=O)N[C@@H](C)C(F)(F)F)cn1)n2C1CCC1 [Cpd 157, 6-(3-cyano-1-cyclobutyl-5-ethyl-1H-pyrrolo[2,3-b]pyridin-2-yl)-N-[(2S)-1,1,1-trifluoropropan-2-yl]pyridine-3-sulfonamide] | < 500
N#Cc1c(-c2ccc(S(=O)(=O)NC3CC3)cn2)n(C2CCC2)c2ncc(C(F)(F)F)cc12 [Cpd 245, 6-[3-cyano-1-cyclobutyl-5-(trifluoromethyl)-1H-pyrrolo[2,3-b]pyridin-2-yl]-N-cyclopropylpyridine-3-sulfonamide] | < 500
Cc1cnc(-n2c(-c3ccc(S(=O)(=O)N[C@@H](C)C(F)(F)F)cn3)c(C#N)c3cc(C(F)(F)F)cnc32)cn1 [Cpd 354, 6-[3-cyano-1-(5-methylpyrazin-2-yl)-5-(trifluoromethyl)-1H-pyrrolo[2,3-b]pyridin-2-yl]-N-[(2S)-1,1,1-trifluoropropan-2-yl]pyridine-3-sulfonamide] | < 500
CN(Cc1ccccc1)c1cnc2c(c1)c(C#N)c(-c1ccc(NS(=O)(=O)C(C)(C)C)cc1)n2C1CCC1 [Cpd 352, N-(4-{5-[benzyl(methyl)amino]-3-cyano-1-cyclobutyl-1H-pyrrolo[2,3-b]pyridin-2-yl}phenyl)-2-methylpropane-2-sulfonamide] | 500 to 2000
N#Cc1c(-c2ccc(S(=O)(=O)NC3(C(F)(F)F)CC3)cc2)n(C2CCC2)c2ncc(C3CC3)cc12 [Cpd 123, 4-(3-cyano-1-cyclobutyl-5-cyclopropyl-1H-pyrrolo[2,3-b]pyridin-2-yl)-N-[1-(trifluoromethyl)cyclopropyl]benzenesulfonamide] | < 500
CC(C)(NS(=O)(=O)c1ccc(-c2c(C#N)c3cc(C(F)F)cnc3n2C2CCC2)nc1)C(F)(F)F [Cpd 456, 6-[3-cyano-1-cyclobutyl-5-(difluoromethyl)-1H-pyrrolo[2,3-b]pyridin-2-yl]-N-(1,1,1-trifluoro-2-methylpropan-2-yl)pyridine-3-sulfonamide] | < 500

— patent publication US9593108B2, “Compounds and methods for antiviral treatment” (PTC Therapeutics, Inc., priority 2009, dated 2017)
